The values that follow come from patent publication US20130231292A1, “Synergistic anti-proliferation activity of TAS-108 with mTOR inhibitors against cancer cells” (priority 2012, published 2013).

The test system of data set [1] is BT-549. The data set is described as follows: Combination screen of TAS-108 with a second compound, CellTiter-Glo. As to conditions: BT-549, in combination with TAS-108. It is filed as cell-based, human.
Data set [2] relates to human mammary carcinoma cell lines. The data set is described as follows: Combination screen of TAS-108 with a second compound, all six breast lines. Particulars: number of the six breast cell lines with synergy, in combination with TAS-108.
Description: (§1) Cells were treated with compounds alone or in combination for three days and CellTiter-Glo® Luminescent Cell Viability Assay (Promega Corp.) was used as the endpoint to measure cell viability.
(§2) Cells were cultured in RPMI with 10% fetal bovine serum and used between passage 2 and passage 20.
(§3) Other compounds used were purchased from commercial sources (Sigma, AK Scientific). 40 mM Compound stocks in 100% DMSO were made. Master plates were made with Janus (PerkinElmer), then further diluted and added to the cell plates with Matrix Platemate (Thermo) on Day 0.
(§4) CellTiter-Glo® Luminescent Cell Viability Assay (Promega Corp.) was used to measure ATP as an indicator of viable cells on Day 3 using Envision (PerkinElmer) and back up plate reader Analyst HT (MDS) and Gen5 (BioTek).
(§5) Relative Luminescent Units (RLU) were plotted against corresponding drug concentrations and fitted with a standard four parameter sigmoidal curve with custom coded R program. Percentage growth inhibition is calculated as: [(Ti−Tz)/(C−Tz)]×100 for concentrations for which Ti≧Tz and [(Ti−Tz)/Tz]×100 for concentrations for which Ti<Tz.
(§6) Twenty-five doses were tested for each pair of combinations.
(§7) N: no synergistic effect; Y: synergistic effect; y: weak synergistic effect.
Data set [3] concerns MDA-MB-231. The data set is described as follows: Combination screen of TAS-108 with a second compound, CellTiter-Glo. Particulars: MDA-MB-231, in combination with TAS-108. On the technique in general: ATP-based viability assays read luminescence as a measure of living cells.
Description: as §1, §2, §3, §4, §5, §6, §7
The test system of data set [4] is MDA-MB-468. The data set is described as above. Particulars: MDA-MB-468, in combination with TAS-108.
Description: as §1, §2, §3, §4, §5, §6, §7
Data set [5] has as its system T-47D. The data set is described as above. Particulars: in combination with TAS-108.
Description: as §1, §2, §3, §4, §5, §6, §7
For data set [6], the system named is MCF7. The data set is described as above. As to conditions: MCF7, in combination with TAS-108.
Description: as §1, §2, §3, §4, §5, §6, §7
The test system of data set [7] is HS 578T. The data set is described as above. Particulars: in combination with TAS-108.
Description: as §1, §2, §3, §4, §5, §6, §7
For data set [8], the system named is T47D. The data set is described as follows: CellTiter-Glo cell viability assay, single agents, three days. It is filed as cell-based. As to conditions: Homo sapiens, 72 h.
In data set [9] the test system is BT549. The data set is described as above. It is filed as cell-based. Particulars: Homo sapiens, BT-549, 72 h.
The subject of data set [10] is HS578T. The description is as above. As to conditions: Homo sapiens, Hs-578T, 72 h, HS578T. It is filed as cell-based.
For data set [11] the following is noted: Phase II clinical trial; cited from earlier work.
In data set [12] the test system is MCF7. The data set is described as follows: CellTiter-Glo cell viability assay, single agents, three days. It is filed as cell-based. As to conditions: Homo sapiens, 72 h.
In data set [13] the test system is Tamoxifen-sensitive and Tamoxifen-resistant breast carcinomas. As to conditions: in vitro and in vivo; cited from earlier work.
The conditions of data set [14]: compared to Tamoxifen; cited from earlier work.
Data set [15] relates to MDAMB468. The data set is described as follows: CellTiter-Glo cell viability assay, single agents, three days. Particulars: Homo sapiens, MDA-MB-468, 72 h. It is filed as cell-based.
In data set [16] the test system is breast carcinoma cells with aromatose inhibitor resistant characteristics. Particulars: aromatase inhibitor resistant characteristics; cited from earlier work.
The conditions of data set [17]: compared to Tamoxifen; cited from earlier work. The source holds these as a separate data set.
Data set [18] concerns MDAMB231. The data set is described as follows: CellTiter-Glo cell viability assay, single agents, three days. It is filed as cell-based. As to conditions: Homo sapiens, MDA-MB-231, 72 h.
The mark [19] stands for this setting: highest dose tested, read-out: Max Inhibition.
The mark [20] stands for this setting: three days, CellTiter-Glo, read-out: GI50.

Take `CNC(=O)c1cc(Oc2ccc(NC(=O)Nc3ccc(Cl)c(C(F)(F)F)c3)cc2)ccn1` [Sorafenib]: the “Synergistic effect of TAS 108 paired with compound” value in [1], in data set [3], in data set [4], in [5], in data set [6] and in [7] was “N” throughout. Also, in data set [2], the “Synergy #” value stood at 0.
Consider `CCN(CC)Cc1ccc(OCC[C@H]2CC[C@H]3[C@@H]4[C@H](C)Cc5cc(O)ccc5[C@H]4CC[C@]23C)c(OC)c1` [TAS-108, (7α)-21-[4-[(Diethylamino)methyl]-2-methoxyphenoxy]-7-methyl-19-norpregna-1,3,5(10)-trien-3-ol 2-hydroxy-1,2,3-propanetricarboxylate], for which the Emax in data set [8] (setting [19]) is 100%; in [9] (BT549, highest dose tested, read-out: Max Inhibition) it was 100%; in data set [10] (setting [19]), 100%; in data set [12] (MCF7, highest dose tested, read-out: Max Inhibition) it was 99%; in data set [15] (MDAMB468, highest dose tested, read-out: Max Inhibition) it was 100%; in [18] (MDAMB231, highest dose tested, read-out: Max Inhibition) it was 100%. For the same compound, the 50% growth inhibitory concentration (GI50) (commonly the concentration giving 50% growth inhibition) in data set [8] (setting [20]) was found to be 11 µM; in [9] (BT549, three days, CellTiter-Glo), 13 µM; in [10] (setting [20]), 8.2 µM; in data set [12] (MCF7, three days, CellTiter-Glo, read-out: GI50), 10 µM; in data set [15] (MDAMB468, three days, CellTiter-Glo) it was 1.8 µM; in data set [18] (MDAMB231, three days, CellTiter-Glo), 9.3 µM. The clinical benefit result in data set [11] is “provided clinical benefits”. Moreover, in data set [11], the tolerability result is “well tolerated”. The anti-tumor activity entry in data set [13] was “potent anti-tumor activity”. For the same compound, in data set [14], the bone density entry was “protects against reductions in bone density, similar to Tamoxifen”. Further, the “growth of breast carcinoma cells” value in [16] was “inhibits the growth”. In addition, in data set [17], the uterotrophic activity result is “significantly less uterotrophic activity compared to Tamoxifen”.
